# Measured values published in ChEMBL document CHEMBL5724914, “Linking interpersonal differences in gut microbiota composition and drug biotransformation activity” (2024).
# Experiment: (§1) The drug is tested on Z-027 corresponding to metagenome with ENA study accession number: PRJEB37062 and ENA sample accession number: ERS12561826 for biotransformation under anaerobic condition. The drug concentrations were measured over 9 timepoints collected between 0 and 24 hours of incubation by liquid-chromatography-coupled mass spectrometry (LC–MS)
# Details: 2 µM
# Also: call rule not given here.
row,Structure (SMILES),Bacterial Biotransformation
1,Br.COc1ccc2c(c1)[C@]13CCCC[C@@H]1[C@H](C2)N(C)CC3.O [DEXTROMETHORPHAN HYDROBROMIDE],Compound NOT metabolized
2,CC(=O)Nc1ccc(OC(C)=O)cc1 [DIACETAMATE],Compound metabolized

# Experiment: (§2) The drug is tested on Z-002 corresponding to rabbit gut metagenome with ENA study accession number: PRJEB37062 and ENA sample accession number: ERS12561802 for biotransformation under anaerobic condition. The drug concentrations were measured over 9 timepoints collected between 0 and 24 hours of incubation by liquid-chromatography-coupled mass spectrometry (LC–MS)
# Details: 2 µM
row,Structure (SMILES),Bacterial Biotransformation
1,Br.COc1ccc2c(c1)[C@]13CCCC[C@@H]1[C@H](C2)N(C)CC3.O [DEXTROMETHORPHAN HYDROBROMIDE],Compound metabolized
2,CC(=O)Nc1ccc(OC(C)=O)cc1 [DIACETAMATE],Compound metabolized

# Experiment: as §2, with “Z-029” for “Z-002”, “rat” for “rabbit”, “ERS12561828” for “ERS12561802”
# Details: 2 µM
row,Structure (SMILES),Bacterial Biotransformation
1,Br.COc1ccc2c(c1)[C@]13CCCC[C@@H]1[C@H](C2)N(C)CC3.O [DEXTROMETHORPHAN HYDROBROMIDE],Compound NOT metabolized
2,CC(=O)Nc1ccc(OC(C)=O)cc1 [DIACETAMATE],Compound metabolized

# Experiment: as §1, with “Z-012” for “Z-027”, “ERS12561812” for “ERS12561826”
# Details: 2 µM
row,Structure (SMILES),Bacterial Biotransformation
1,Br.COc1ccc2c(c1)[C@]13CCCC[C@@H]1[C@H](C2)N(C)CC3.O [DEXTROMETHORPHAN HYDROBROMIDE],Compound NOT metabolized
2,CC(=O)Nc1ccc(OC(C)=O)cc1 [DIACETAMATE],Compound metabolized

# Details: human gut metagenome, 24 h, 2 µM
row,Structure (SMILES),Bacterial Biotransformation
1,Br.COc1ccc2c(c1)[C@]13CCCC[C@@H]1[C@H](C2)N(C)CC3.O [DEXTROMETHORPHAN HYDROBROMIDE],Compound NOT metabolized
2,CC(=O)Nc1ccc(OC(C)=O)cc1 [DIACETAMATE],Compound metabolized

# Details: human gut metagenome, 24 h, 2 µM
# Remark: another data set of the same source
row,Structure (SMILES),Bacterial Biotransformation
1,Br.COc1ccc2c(c1)[C@]13CCCC[C@@H]1[C@H](C2)N(C)CC3.O [DEXTROMETHORPHAN HYDROBROMIDE],Compound NOT metabolized
2,CC(=O)Nc1ccc(OC(C)=O)cc1 [DIACETAMATE],Compound metabolized

# Details: human gut metagenome, 24 h, 2 µM
# Remark: another data set of the same source
row,Structure (SMILES),Bacterial Biotransformation
1,Br.COc1ccc2c(c1)[C@]13CCCC[C@@H]1[C@H](C2)N(C)CC3.O [DEXTROMETHORPHAN HYDROBROMIDE],Compound NOT metabolized
2,CC(=O)Nc1ccc(OC(C)=O)cc1 [DIACETAMATE],Compound metabolized

# Details: human gut metagenome, 24 h, 2 µM
# Remark: another data set of the same source
row,Structure (SMILES),Bacterial Biotransformation
1,Br.COc1ccc2c(c1)[C@]13CCCC[C@@H]1[C@H](C2)N(C)CC3.O [DEXTROMETHORPHAN HYDROBROMIDE],Compound NOT metabolized
2,CC(=O)Nc1ccc(OC(C)=O)cc1 [DIACETAMATE],Compound metabolized

# Details: human gut metagenome, 24 h, 2 µM
# Remark: another data set of the same source
row,Structure (SMILES),Bacterial Biotransformation
1,Br.COc1ccc2c(c1)[C@]13CCCC[C@@H]1[C@H](C2)N(C)CC3.O [DEXTROMETHORPHAN HYDROBROMIDE],Compound NOT metabolized
2,CC(=O)Nc1ccc(OC(C)=O)cc1 [DIACETAMATE],Compound metabolized

# Details: human gut metagenome, 24 h, 2 µM
# Remark: another data set of the same source
row,Structure (SMILES),Bacterial Biotransformation
1,Br.COc1ccc2c(c1)[C@]13CCCC[C@@H]1[C@H](C2)N(C)CC3.O [DEXTROMETHORPHAN HYDROBROMIDE],Compound NOT metabolized
2,CC(=O)Nc1ccc(OC(C)=O)cc1 [DIACETAMATE],Compound metabolized

# Experiment: as §2, with “WLS-240” for “Z-002”, “human” for “rabbit”, “ERS12561773” for “ERS12561802”
# Details: 2 µM
row,Structure (SMILES),Bacterial Biotransformation
1,Br.COc1ccc2c(c1)[C@]13CCCC[C@@H]1[C@H](C2)N(C)CC3.O [DEXTROMETHORPHAN HYDROBROMIDE],Compound metabolized
2,CC(=O)Nc1ccc(OC(C)=O)cc1 [DIACETAMATE],Compound metabolized

# Experiment: as §2, with “WLS-098” for “Z-002”, “human” for “rabbit”, “ERS12561754” for “ERS12561802”
# Details: 2 µM
row,Structure (SMILES),Bacterial Biotransformation
1,Br.COc1ccc2c(c1)[C@]13CCCC[C@@H]1[C@H](C2)N(C)CC3.O [DEXTROMETHORPHAN HYDROBROMIDE],Compound metabolized
2,CC(=O)Nc1ccc(OC(C)=O)cc1 [DIACETAMATE],Compound metabolized

# Details: human gut metagenome, 24 h, 2 µM
# Remark: another data set of the same source
row,Structure (SMILES),Bacterial Biotransformation
1,Br.COc1ccc2c(c1)[C@]13CCCC[C@@H]1[C@H](C2)N(C)CC3.O [DEXTROMETHORPHAN HYDROBROMIDE],Compound NOT metabolized
2,CC(=O)Nc1ccc(OC(C)=O)cc1 [DIACETAMATE],Compound metabolized

# Details: human gut metagenome, 24 h, 2 µM
# Remark: another data set of the same source
row,Structure (SMILES),Bacterial Biotransformation
1,Br.COc1ccc2c(c1)[C@]13CCCC[C@@H]1[C@H](C2)N(C)CC3.O [DEXTROMETHORPHAN HYDROBROMIDE],Compound metabolized
2,CC(=O)Nc1ccc(OC(C)=O)cc1 [DIACETAMATE],Compound metabolized

# Experiment: as §2, with “Z-011” for “Z-002”, “mouse” for “rabbit”, “ERS12561811” for “ERS12561802”
# Details: 2 µM
row,Structure (SMILES),Bacterial Biotransformation
1,Br.COc1ccc2c(c1)[C@]13CCCC[C@@H]1[C@H](C2)N(C)CC3.O [DEXTROMETHORPHAN HYDROBROMIDE],Compound NOT metabolized
2,CC(=O)Nc1ccc(OC(C)=O)cc1 [DIACETAMATE],Compound metabolized

# Experiment: as §2, with “Z-024” for “Z-002”, “pig” for “rabbit”, “ERS12561823” for “ERS12561802”
# Details: 2 µM
row,Structure (SMILES),Bacterial Biotransformation
1,Br.COc1ccc2c(c1)[C@]13CCCC[C@@H]1[C@H](C2)N(C)CC3.O [DEXTROMETHORPHAN HYDROBROMIDE],Compound metabolized
2,CC(=O)Nc1ccc(OC(C)=O)cc1 [DIACETAMATE],Compound metabolized

# Experiment: as §2, with “WLS-069” for “Z-002”, “human” for “rabbit”, “ERS12561748” for “ERS12561802”
# Details: 2 µM
row,Structure (SMILES),Bacterial Biotransformation
1,Br.COc1ccc2c(c1)[C@]13CCCC[C@@H]1[C@H](C2)N(C)CC3.O [DEXTROMETHORPHAN HYDROBROMIDE],Compound metabolized
2,CC(=O)Nc1ccc(OC(C)=O)cc1 [DIACETAMATE],Compound metabolized

# Experiment: as §2, with “Z-016” for “Z-002”, “mouse” for “rabbit”, “ERS12561815” for “ERS12561802”
# Details: 2 µM
row,Structure (SMILES),Bacterial Biotransformation
1,Br.COc1ccc2c(c1)[C@]13CCCC[C@@H]1[C@H](C2)N(C)CC3.O [DEXTROMETHORPHAN HYDROBROMIDE],Compound NOT metabolized
2,CC(=O)Nc1ccc(OC(C)=O)cc1 [DIACETAMATE],Compound metabolized

# Details: human gut metagenome, 24 h, 2 µM
# Remark: another data set of the same source
row,Structure (SMILES),Bacterial Biotransformation
1,Br.COc1ccc2c(c1)[C@]13CCCC[C@@H]1[C@H](C2)N(C)CC3.O [DEXTROMETHORPHAN HYDROBROMIDE],Compound metabolized
2,CC(=O)Nc1ccc(OC(C)=O)cc1 [DIACETAMATE],Compound metabolized

# Experiment: as §2, with “WLS-038” for “Z-002”, “human” for “rabbit”, “ERS12561745” for “ERS12561802”
# Details: 2 µM
row,Structure (SMILES),Bacterial Biotransformation
1,Br.COc1ccc2c(c1)[C@]13CCCC[C@@H]1[C@H](C2)N(C)CC3.O [DEXTROMETHORPHAN HYDROBROMIDE],Compound NOT metabolized
2,CC(=O)Nc1ccc(OC(C)=O)cc1 [DIACETAMATE],Compound metabolized
